Molecules are shown by their SMILES.

For data set [1], the target named is Angiopoietin-1 receptor (Homo sapiens, UniProt Q02763). Description: Inhibition of human recombinant TIE2 by HTRF assay. A general note: TR-FRET usually uses a lanthanide donor and a delayed reading to cut background.
Data set [2] in a line: Oral bioavailability in rat at 5 mg/kg. The class given is ADME, organism-based. Conditions: in vivo.
Data set [3] is described as follows: AUC (0 to infinity) in rat at 1 mg/kg, iv. The data set is classed as ADME, organism-based. Also noted: time infinity, dose 1 mg/kg, route intravenous. Conditions: plasma.
The subject of data set [4] is A-375. As to the kind of experiment: Antitumor activity against human A375 cells xenografted mouse assessed as partial tumor regression at 10 mg/kg, po bid relative to control. The data set is classed as functional. Background: Xenograft models place foreign cells or tissue in a host animal.
In data set [5] the test system is A-375. Description: Cytotoxicity against human A375 cells. The data set is classed as functional, cell-based.
Data set [6] in a line: Volume of distribution in rat at 1 mg/kg, iv. The class given is ADME, organism-based. Also noted: dose 1 mg/kg, route intravenous. Conditions: in vivo.
Data set [7] deals with Vascular endothelial growth factor receptor 3 (Homo sapiens, UniProt P35916). As to the kind of experiment: Inhibition of VEGFR3.
A short description of data set [8]: AUC (0 to infinity) in rat at 5 mg/kg, po. The class given is ADME, organism-based. Set-up: time infinity, dose 5 mg/kg, route oral. The following applies: plasma.
The target in data set [9] is Vascular endothelial growth factor receptor 1 (Homo sapiens, UniProt P17948). Description: Inhibition of VEGFR1.
The subject of data set [10] is HUVEC. Description: Cytotoxicity against HUVEC cells. The data set is classed as cell-based. Conditions: human.
Data set [11] relates to Mus musculus. As to the kind of experiment: Toxicity in A375 cells xenografted mouse melanoma model assessed as mortality. The data set is classed as organism-based, A-375. The following applies: in vivo.
Data set [12] is filed under the species Rattus norvegicus. As to the kind of experiment: Ex vivo antiangiogenic activity in rat aortic ring explant assessed as inhibition of microvessel outgrowth after 10 days. The class given is functional. Conditions: Aorta, 240 h.
A short description of data set [13]: Half life in rat at 1 mg/kg, iv. The data set is classed as ADME, organism-based. Set-up: dose 1 mg/kg, route intravenous. The following applies: in vivo.
Data set [14] addresses Epidermal growth factor receptor (Homo sapiens, UniProt P00533). As to the kind of experiment: Inhibition of EGFR.
The test system of data set [15] is A-375. As to the kind of experiment: Antitumor activity against human A375 cells xenografted mouse assessed as tumor growth inhibition at 10 mg/kg, po bid relative to control. Also noted: scale not given: the % may be the effect or the level left. The class given is functional.
For data set [16], the target named is Proto-oncogene tyrosine-protein kinase Src (Homo sapiens, UniProt P12931). Description: Inhibition of c-src.
Data set [17] has as its target Insulin receptor (Homo sapiens, UniProt P06213). Description: Inhibition of IR.
Data set [18] deals with HUVEC. Description: Inhibition of VEGF-induced HUVEC cells capillary tube formation relative to control. The data set is classed as functional, cell-based. Conditions: Homo sapiens.
Data set [19] deals with Vascular endothelial growth factor receptor 2 (Homo sapiens, UniProt P35968). Description: Inhibition of human recombinant VEGFR2 by HTRF assay.
A short description of data set [20]: Cmax in rat at 5 mg/kg, po. The class given is ADME, organism-based. Set-up: dose 5 mg/kg, route oral. Conditions: in vivo.
Data set [21] can be described thus: Half life in rat at 5 mg/kg, po. The class given is ADME, organism-based. Also noted: dose 5 mg/kg, route oral. Conditions: in vivo.
The nature of data set [22]: Clearance in rat at 1 mg/kg, iv. The class given is ADME, organism-based. Set-up: dose 1 mg/kg, route intravenous. The following applies: in vivo.

Sequence of Angiopoietin-1 receptor (Q02763 whole entry): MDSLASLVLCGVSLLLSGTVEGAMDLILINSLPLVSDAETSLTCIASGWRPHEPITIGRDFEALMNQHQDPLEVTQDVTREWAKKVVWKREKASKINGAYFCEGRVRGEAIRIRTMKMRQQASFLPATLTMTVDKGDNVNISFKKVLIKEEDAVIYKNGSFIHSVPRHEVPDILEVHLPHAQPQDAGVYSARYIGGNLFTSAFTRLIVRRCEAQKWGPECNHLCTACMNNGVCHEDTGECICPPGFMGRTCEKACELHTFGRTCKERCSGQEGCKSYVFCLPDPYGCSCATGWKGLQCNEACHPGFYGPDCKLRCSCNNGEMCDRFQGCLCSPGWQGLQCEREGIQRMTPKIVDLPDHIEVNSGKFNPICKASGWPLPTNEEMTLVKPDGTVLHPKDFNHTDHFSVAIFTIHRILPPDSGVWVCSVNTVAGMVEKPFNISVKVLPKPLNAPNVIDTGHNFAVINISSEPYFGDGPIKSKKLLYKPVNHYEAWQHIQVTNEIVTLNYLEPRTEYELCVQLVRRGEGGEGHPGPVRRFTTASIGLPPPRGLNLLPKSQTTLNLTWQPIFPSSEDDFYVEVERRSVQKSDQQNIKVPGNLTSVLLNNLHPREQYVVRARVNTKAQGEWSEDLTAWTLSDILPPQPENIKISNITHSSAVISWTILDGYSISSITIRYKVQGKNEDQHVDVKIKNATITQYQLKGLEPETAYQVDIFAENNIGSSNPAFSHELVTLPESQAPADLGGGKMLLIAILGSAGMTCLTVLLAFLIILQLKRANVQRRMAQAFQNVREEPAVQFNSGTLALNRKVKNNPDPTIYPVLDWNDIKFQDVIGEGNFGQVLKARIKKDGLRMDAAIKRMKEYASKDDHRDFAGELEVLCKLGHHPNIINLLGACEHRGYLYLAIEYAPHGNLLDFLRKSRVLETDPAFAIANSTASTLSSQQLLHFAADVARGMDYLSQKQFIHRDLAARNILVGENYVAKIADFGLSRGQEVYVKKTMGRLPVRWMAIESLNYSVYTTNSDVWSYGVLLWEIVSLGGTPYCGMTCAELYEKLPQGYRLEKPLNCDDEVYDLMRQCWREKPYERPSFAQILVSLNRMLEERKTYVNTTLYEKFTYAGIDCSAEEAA
Sequence of Insulin receptor (P06213 28-758 limits assumed): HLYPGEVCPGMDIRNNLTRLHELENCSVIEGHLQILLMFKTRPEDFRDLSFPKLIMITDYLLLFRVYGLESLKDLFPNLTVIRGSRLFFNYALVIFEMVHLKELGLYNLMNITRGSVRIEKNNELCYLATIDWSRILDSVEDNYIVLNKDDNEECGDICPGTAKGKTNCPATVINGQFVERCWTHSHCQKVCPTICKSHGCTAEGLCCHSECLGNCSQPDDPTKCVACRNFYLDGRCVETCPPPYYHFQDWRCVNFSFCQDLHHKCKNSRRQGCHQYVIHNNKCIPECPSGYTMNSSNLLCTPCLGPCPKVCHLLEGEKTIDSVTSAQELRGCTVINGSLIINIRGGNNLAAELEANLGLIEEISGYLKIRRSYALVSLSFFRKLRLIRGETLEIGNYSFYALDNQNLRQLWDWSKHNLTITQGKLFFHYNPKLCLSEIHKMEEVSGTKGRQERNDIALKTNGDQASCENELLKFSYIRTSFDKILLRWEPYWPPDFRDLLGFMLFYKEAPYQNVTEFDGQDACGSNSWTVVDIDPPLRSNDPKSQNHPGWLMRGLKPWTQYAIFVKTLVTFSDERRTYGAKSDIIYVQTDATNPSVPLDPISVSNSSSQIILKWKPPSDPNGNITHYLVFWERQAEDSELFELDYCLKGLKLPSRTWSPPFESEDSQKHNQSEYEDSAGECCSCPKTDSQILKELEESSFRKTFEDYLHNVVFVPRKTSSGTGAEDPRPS
Sequence of Insulin receptor (P06213 763-1382 limits assumed): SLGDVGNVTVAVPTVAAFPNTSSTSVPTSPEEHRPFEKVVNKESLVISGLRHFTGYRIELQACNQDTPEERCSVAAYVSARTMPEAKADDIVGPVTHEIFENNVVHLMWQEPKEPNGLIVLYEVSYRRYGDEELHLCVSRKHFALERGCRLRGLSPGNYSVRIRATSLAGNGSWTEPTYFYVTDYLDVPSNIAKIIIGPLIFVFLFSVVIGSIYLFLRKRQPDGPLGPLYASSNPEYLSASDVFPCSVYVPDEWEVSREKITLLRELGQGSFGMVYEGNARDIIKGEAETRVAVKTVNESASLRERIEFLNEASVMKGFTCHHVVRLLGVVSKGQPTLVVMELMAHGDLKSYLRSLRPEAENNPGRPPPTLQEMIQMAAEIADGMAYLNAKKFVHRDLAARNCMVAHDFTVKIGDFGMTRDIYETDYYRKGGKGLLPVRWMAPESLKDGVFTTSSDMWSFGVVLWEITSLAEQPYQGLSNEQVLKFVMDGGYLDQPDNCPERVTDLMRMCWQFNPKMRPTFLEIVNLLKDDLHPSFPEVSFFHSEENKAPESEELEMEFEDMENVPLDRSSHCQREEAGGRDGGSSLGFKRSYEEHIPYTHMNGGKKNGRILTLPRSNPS
Sequence of Vascular endothelial growth factor receptor 2 (P35968 whole entry): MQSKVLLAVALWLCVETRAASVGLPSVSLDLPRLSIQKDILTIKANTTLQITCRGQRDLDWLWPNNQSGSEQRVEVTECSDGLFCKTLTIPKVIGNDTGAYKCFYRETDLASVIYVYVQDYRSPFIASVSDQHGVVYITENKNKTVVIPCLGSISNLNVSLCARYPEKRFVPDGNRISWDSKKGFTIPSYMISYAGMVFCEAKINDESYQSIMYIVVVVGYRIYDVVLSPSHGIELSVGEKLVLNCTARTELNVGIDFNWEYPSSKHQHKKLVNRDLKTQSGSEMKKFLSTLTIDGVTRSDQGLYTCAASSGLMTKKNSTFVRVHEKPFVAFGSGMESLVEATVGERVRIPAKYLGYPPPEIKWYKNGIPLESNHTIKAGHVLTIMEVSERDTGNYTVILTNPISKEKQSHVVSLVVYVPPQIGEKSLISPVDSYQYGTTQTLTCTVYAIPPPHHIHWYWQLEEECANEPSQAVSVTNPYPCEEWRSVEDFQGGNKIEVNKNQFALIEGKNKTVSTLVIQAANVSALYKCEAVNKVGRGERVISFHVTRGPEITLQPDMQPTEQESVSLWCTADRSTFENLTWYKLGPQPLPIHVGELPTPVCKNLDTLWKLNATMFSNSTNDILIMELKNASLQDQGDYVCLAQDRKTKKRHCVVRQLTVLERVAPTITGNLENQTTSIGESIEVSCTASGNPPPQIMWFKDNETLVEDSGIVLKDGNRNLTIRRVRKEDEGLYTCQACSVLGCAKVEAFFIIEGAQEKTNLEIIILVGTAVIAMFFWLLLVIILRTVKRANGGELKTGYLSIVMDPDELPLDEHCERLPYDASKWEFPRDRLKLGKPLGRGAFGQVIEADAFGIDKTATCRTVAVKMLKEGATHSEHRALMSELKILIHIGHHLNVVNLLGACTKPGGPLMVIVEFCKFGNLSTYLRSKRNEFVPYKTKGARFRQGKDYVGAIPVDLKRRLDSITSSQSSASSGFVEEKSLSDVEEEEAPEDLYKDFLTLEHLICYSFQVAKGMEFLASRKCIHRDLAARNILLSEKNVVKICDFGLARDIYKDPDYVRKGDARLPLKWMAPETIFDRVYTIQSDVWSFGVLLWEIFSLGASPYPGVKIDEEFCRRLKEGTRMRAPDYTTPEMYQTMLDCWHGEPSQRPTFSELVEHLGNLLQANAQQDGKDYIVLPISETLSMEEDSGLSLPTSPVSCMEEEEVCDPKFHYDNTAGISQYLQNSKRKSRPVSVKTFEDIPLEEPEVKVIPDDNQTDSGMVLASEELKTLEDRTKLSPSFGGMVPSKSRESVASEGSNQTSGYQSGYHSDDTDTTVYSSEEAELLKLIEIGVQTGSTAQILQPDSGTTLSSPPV
Sequence of Proto-oncogene tyrosine-protein kinase Src (P12931 2-536 limits assumed): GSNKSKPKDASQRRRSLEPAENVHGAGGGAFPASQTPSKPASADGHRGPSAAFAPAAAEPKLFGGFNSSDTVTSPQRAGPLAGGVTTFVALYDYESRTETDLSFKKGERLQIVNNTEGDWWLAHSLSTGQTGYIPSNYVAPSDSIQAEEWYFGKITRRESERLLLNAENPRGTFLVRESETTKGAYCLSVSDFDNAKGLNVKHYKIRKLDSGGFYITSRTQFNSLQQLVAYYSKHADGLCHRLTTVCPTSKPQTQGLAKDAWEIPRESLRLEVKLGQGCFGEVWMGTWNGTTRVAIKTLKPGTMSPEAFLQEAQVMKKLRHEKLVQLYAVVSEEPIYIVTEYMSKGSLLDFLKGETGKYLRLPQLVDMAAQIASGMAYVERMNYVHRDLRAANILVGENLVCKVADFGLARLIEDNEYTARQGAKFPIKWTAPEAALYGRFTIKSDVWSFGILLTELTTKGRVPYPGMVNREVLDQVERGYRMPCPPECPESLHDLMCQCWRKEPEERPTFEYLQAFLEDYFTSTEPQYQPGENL

For `C/C(=N\OC(C)(C)C)c1ccc2[nH]c3c4c(c5c(c3c2c1)CNC5=O)-c1cn(C)nc1CC4`, the IC50 in data set [1] came out at 93 nM.
The same measure, in the same setting: to `CO/N=C(\C)c1ccc2c(c1)c1c3c(c4c(c1n2C)CCc1nn(C)cc1-4)C(=O)NC3` belongs 347 nM.
On to `CCn1c2ccc(/C(C)=N/OC)cc2c2c3c(c4c(c21)CCc1nn(C)cc1-4)C(=O)NC3`, for which the IC50 in data set [1] amounted to 300 nM.
Consider `CO/N=C/c1ccc2[nH]c3c4c(c5c(c3c2c1)CNC5=O)-c1cn(C)nc1CC4`, for which, in data set [1], the IC50 came to 148 nM.
On the same count and under the same terms, with `CCO/N=C/c1ccc2[nH]c3c4c(c5c(c3c2c1)CNC5=O)-c1cn(C)nc1CC4` the figure was 264 nM.
Still for that read-out and setting: to `CO/N=C(\C)c1ccc2[nH]c3c4c(c5c(c3c2c1)CNC5=O)-c1cn(C)nc1CC4` belongs 71 nM.
`CO/N=C(/c1ccc2[nH]c3c4c(c5c(c3c2c1)CNC5=O)-c1cn(C)nc1CC4)C(C)C`: in data set [1], the IC50 was determined as 264 nM.
The same measure, in the same setting: to `CCO/N=C(/c1ccc2[nH]c3c4c(c5c(c3c2c1)CNC5=O)-c1cn(C)nc1CC4)C(C)C` belongs 92 nM; to `C/C(=N\OC(C)C)c1ccc2[nH]c3c4c(c5c(c3c2c1)CNC5=O)-c1cn(C)nc1CC4`, 28 nM.
Still for that read-out and setting: to `CCCn1c2ccc(/C(C)=N/OC)cc2c2c3c(c4c(c21)CCc1nn(C)cc1-4)C(=O)NC3` belongs 30 nM.
In [2], `CO/N=C(\C)c1ccc2c(c1)c1c3c(c4c(c1n2CC(C)C)CCc1nn(C)cc1-4)C(=O)NC3` registered a bioavailability of 66%. The AUC(0-inf) in [3] is 2760 ng·h/mL; in [8] it was 9060 ng·h/mL. Also, the Activity in [4] is given as 38%; in [10], “Non-toxic”; in data set [11], “Non-toxic”; in data set [15], 80%. The concentration for a half-maximal effect (EC50) in [5] amounted to 70 nM; in data set [12], 3 nM; in [18], 1 nM. In data set [6], this compound came in with a volume of distribution (Vd) of 0.8 L/kg. Moreover, the IC50 in [7] was 10 nM; in [9], 8 nM; in data set [1] it was 30 nM; in data set [14], > 1000 nM; in [16] it was 43 nM; in data set [17], > 1000 nM. In data set [19], the 50% inhibitory concentration (IC50) was 7 nM. The half-life was 1.4 h in [13] and 6.5 h in data set [21]. In [20], the concentration peaked (Cmax) at 874 ng/mL. In addition, in data set [22], the clearance came to 6.5 mL/min/kg.
As to `C/C(=N\OCC(C)C)c1ccc2c(c1)c1c3c(c4c(c1n2CC(C)C)CCc1nn(C)cc1-4)C(=O)NC3`, the half-maximal inhibitory concentration (IC50) in [1] was found to be 23 nM.
For the compound `C/C(=N\OCC(C)C)c1ccc2[nH]c3c4c(c5c(c3c2c1)CNC5=O)-c1cn(C)nc1CC4`, in [1], the concentration for half-maximal inhibition (IC50) came out at 10 nM.
The same measure, in the same setting: with `C/C(=N\OCC(C)C)c1ccc2c(c1)c1c3c(c4c(c1n2C(C)C)CCc1nn(C)cc1-4)C(=O)NC3` the figure was 46 nM; with `Cn1cc2c(n1)CCc1c-2c2c(c3c1[nH]c1ccccc13)CNC2=O`, 1300 nM.
The same measure, in the same setting: with `COc1ccc(-c2oc3ncnc(N)c3c2-c2ccc(NC(=O)Nc3c(F)cccc3C(F)(F)F)cc2)cc1` the figure was 2 nM; with `CO/N=C(\C)c1ccc2c(c1)c1c3c(c4c(c1n2C(C)C)CCc1nn(C)cc1-4)C(=O)NC3`, 97 nM.
Compound `CCO/N=C(\C)c1ccc2c(c1)c1c3c(c4c(c1n2C(C)C)CCc1nn(C)cc1-4)C(=O)NC3` displayed a bioavailability in data set [2] of 31%. The total exposure AUC(0-inf) in [3] was determined as 2300 ng·h/mL; in [8], 3610 ng·h/mL. Further, in data set [6], the volume of distribution (Vd) is 1.3 L/kg. Besides, the IC50 is 26 nM in data set [1]; > 1000 nM in [14]; 14 nM in data set [16]; > 1000 nM in data set [17]; 4 nM in [19]. Besides, the half-life in data set [13] was 2 h; in data set [21] it was 3.2 h. Also, the Cmax in data set [20] turned out to be 637 ng/mL. In data set [22], this compound displayed a clearance of 7.4 mL/min/kg.
`CCn1c2ccc(/C(C)=N/OCC(C)C)cc2c2c3c(c4c(c21)CCc1nn(C)cc1-4)C(=O)NC3`: in [1], the half-inhibitory concentration (IC50) amounted to 45 nM.
`CCCCn1c2ccc(/C(C)=N/OC)cc2c2c3c(c4c(c21)CCc1nn(C)cc1-4)C(=O)NC3`: the half-maximal inhibitory concentration (IC50) in [1] was determined as 108 nM.
`C/C(=N\OC(C)C)c1ccc2c(c1)c1c3c(c4c(c1n2CC(C)C)CCc1nn(C)cc1-4)C(=O)NC3`: the IC50 in [1] turned out to be 52 nM.
As to `C/C(=N\O)c1ccc2[nH]c3c4c(c5c(c3c2c1)CNC5=O)-c1cn(C)nc1CC4`, in data set [1], the 50% inhibitory concentration (IC50) was determined as 44 nM.
As to `CCO/N=C(\C)c1ccc2[nH]c3c4c(c5c(c3c2c1)CNC5=O)-c1cn(C)nc1CC4`, the IC50 in data set [1] was 23 nM.
For the compound `CCO/N=C(\C)c1ccc2c(c1)c1c3c(c4c(c1n2CC(C)C)CCc1nn(C)cc1-4)C(=O)NC3`, in data set [1], the concentration for half-maximal inhibition (IC50) was determined as 25 nM.
Still for that read-out and setting: with `C/C(=N\OC(C)C)c1ccc2c(c1)c1c3c(c4c(c1n2C(C)C)CCc1nn(C)cc1-4)C(=O)NC3` the figure was 66 nM.

One may read the IC50 as the concentration at which inhibition is half-maximal. What is called bioavailability is dose-corrected exposure relative to a reference, in per cent. What is called AUC(0-inf) is total exposure, with the tail of the curve extrapolated. As a reminder, the EC50 is the concentration needed to bring the measured effect to its halfway point. As usually defined, the Vd is a proportionality between amount in the body and measured concentration, not a real space. A word on the half-life: it is the time needed for the level to fall by half in the phase considered. As usually defined, the Cmax is the peak of the concentration-time curve. For orientation: clearance means the rate of elimination divided by the concentration.

The values are drawn from ChEMBL document CHEMBL1141537, “Design and synthesis of dihydroindazolo[5,4-a]pyrrolo[3,4-c]carbazole oximes as potent dual inhibitors of TIE-2 and VEGF-R2 receptor tyrosine kinases” (Bioorg Med Chem Lett, 2008).
